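Grown in 96-well plates, cells were treated for 48 hours with each compound at five concentrations. Insufficient inhibition: endpoint recorded as highest concentration tested. GI50: concentration for 50% inhibition of growth.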 Active and inactive are the calls of the source. Rule as the data show it: active = GI50 up to about 1.1 µM and inactive = higher.
How the values were obtained:
Assay in all cases: NCI tumour cell line growth inhibition, 48 h
[1] = tested on: U-251
[2] = tested on: UACC-62
[3] = tested on: HCT-15
[4] = tested on: NCI-H23
[5] = tested on: ACHN
[6] = tested on: NCI/ADR-RES
[7] = tested on: MDA-MB-231
[8] = tested on: SW-620
[9] = tested on: HCC 2998
[10] = tested on: DU-145
[11] = tested on: HL-60
[12] = tested on: SK-MEL-5
[13] = tested on: SNB-75
[14] = tested on: OVCAR-5
[15] = tested on: HOP-62
[16] = tested on: MOLT-4
[17] = tested on: SF-295
[18] = tested on: OVCAR-4
[19] = tested on: MDA-N
[20] = tested on: OVCAR-3
[21] = tested on: Hs-578T
[22] = tested on: UACC-257
[23] = tested on: MCF7
[24] = tested on: SK-OV-3
[25] = tested on: PC-3
[26] = tested on: NCI-H522
[27] = tested on: UO-31
[28] = tested on: CAKI-1
[29] = tested on: EKVX
[30] = tested on: SK-MEL-28
[31] = tested on: HT-29
[32] = tested on: BT-549
[33] = tested on: NCI-H460
[34] = tested on: COLO 205
[35] = tested on: SNB-19
[36] = tested on: IGROV-1
[37] = tested on: SF-268
[38] = tested on: SK-MEL-2
[39] = tested on: LOX IMVI
[40] = tested on: SF-539
[41] = tested on: A549
[42] = tested on: M14
[43] = tested on: CCRF-CEM
[44] = tested on: NCI-H226
[45] = tested on: KM12
[46] = tested on: SN12C
[47] = tested on: OVCAR-8
[48] = tested on: MDA-MB-435
[49] = tested on: SR
[50] = tested on: HCT-116
[51] = tested on: RXF 393
[52] = tested on: HOP-92
[53] = tested on: 786-0
[54] = tested on: TK-10
[55] = tested on: RPMI-8226
[56] = tested on: T47D
[57] = tested on: K562
[58] = tested on: A498
[59] = tested on: Malme-3M

C=C(Nc1ccc([N+](=O)[O-])cc1[N+](=O)[O-])c1c/c(=N\NC(N)=S)c2ccccc2o1
GI50 [1]: 61.1 µM (inactive)
GI50 [2]: > 100 µM (inactive)
GI50 [3]: 51.9 µM
GI50 [4]: 81.8 µM (inactive)
GI50 [5]: 89.5 µM (inactive)
GI50 [6]: 40.9 µM (inactive)
GI50 [7]: 26.8 µM (inactive)
GI50 [8]: 39.8 µM (inactive)
GI50 [9]: 95.9 µM (inactive)
GI50 [10]: > 100 µM (inactive)
GI50 [11]: 32.8 µM (inactive)
GI50 [12]: 37.7 µM (inactive)
GI50 [13]: 74.8 µM (inactive)
GI50 [14]: 56.9 µM (inactive)
GI50 [15]: 70 µM (inactive)
GI50 [16]: 42.4 µM (inactive)
GI50 [17]: 39.5 µM (inactive)
GI50 [18]: 49 µM (inactive)
GI50 [19]: > 100 µM (inactive)
GI50 [20]: 22.7 µM (inactive)
GI50 [21]: > 100 µM (inactive)
GI50 [22]: 91.6 µM (inactive)
GI50 [23]: 40.6 µM (inactive)
GI50 [24]: 35.7 µM (inactive)
GI50 [25]: 26.1 µM (inactive)
GI50 [26]: > 100 µM (inactive)
GI50 [27]: 29.1 µM (inactive)
GI50 [28]: > 100 µM (inactive)
GI50 [29]: 68.7 µM (inactive)
GI50 [30]: > 100 µM (inactive)
GI50 [31]: 87.7 µM (inactive)
GI50 [32]: > 100 µM (inactive)
GI50 [33]: > 100 µM (inactive)
GI50 [34]: 33.5 µM (inactive)
GI50 [35]: 53 µM (inactive)
GI50 [36]: 36.1 µM (inactive)
GI50 [37]: > 100 µM (inactive)
GI50 [38]: > 100 µM (inactive)
GI50 [39]: > 100 µM (inactive)
GI50 [40]: 16.6 µM (inactive)
GI50 [41]: > 100 µM (inactive)
GI50 [42]: > 100 µM (inactive)
GI50 [43]: 41.9 µM (inactive)
GI50 [44]: 28.2 µM (inactive)
GI50 [45]: 59.4 µM (inactive)
GI50 [46]: 47.6 µM (inactive)
GI50 [47]: 41.7 µM (inactive)
GI50 [48]: 81.5 µM (inactive)
GI50 [49]: 16.9 µM (inactive)
GI50 [50]: 33.7 µM (inactive)
GI50 [51]: 60.3 µM (inactive)
GI50 [52]: 29 µM (inactive)
GI50 [53]: 66.8 µM (inactive)
GI50 [54]: > 100 µM (inactive)

N#Cc1ccc(/C=C2\Cc3ccccc3C2=O)cc1
GI50 [2]: > 100 µM (inactive)
GI50 [3]: > 100 µM
GI50 [4]: > 100 µM (inactive)
GI50 [5]: > 100 µM (inactive)
GI50 [7]: > 100 µM (inactive)
GI50 [8]: > 100 µM (inactive)
GI50 [9]: > 100 µM (inactive)
GI50 [10]: > 100 µM (inactive)
GI50 [11]: 67.6 µM (inactive)
GI50 [12]: > 100 µM (inactive)
GI50 [13]: > 100 µM (inactive)
GI50 [15]: > 100 µM (inactive)
GI50 [16]: > 100 µM (inactive)
GI50 [17]: > 100 µM (inactive)
GI50 [18]: > 100 µM (inactive)
GI50 [19]: > 100 µM (inactive)
GI50 [20]: > 100 µM (inactive)
GI50 [21]: 51.2 µM (inactive)
GI50 [22]: 75.2 µM (inactive)
GI50 [23]: > 100 µM (inactive)
GI50 [24]: > 100 µM (inactive)
GI50 [25]: > 100 µM (inactive)
GI50 [26]: 14.3 µM (inactive)
GI50 [27]: 43.4 µM (inactive)
GI50 [28]: 26.2 µM (inactive)
GI50 [29]: 46.8 µM (inactive)
GI50 [30]: > 100 µM (inactive)
GI50 [31]: > 100 µM (inactive)
GI50 [55]: > 100 µM (inactive)
GI50 [32]: > 100 µM (inactive)
GI50 [33]: > 100 µM (inactive)
GI50 [34]: > 100 µM (inactive)
GI50 [35]: > 100 µM (inactive)
GI50 [37]: > 100 µM (inactive)
GI50 [40]: > 100 µM (inactive)
GI50 [41]: > 100 µM (inactive)
GI50 [42]: > 100 µM (inactive)
GI50 [43]: > 100 µM (inactive)
GI50 [44]: 56.9 µM (inactive)
GI50 [45]: > 100 µM (inactive)
GI50 [46]: > 100 µM (inactive)
GI50 [47]: > 100 µM (inactive)
GI50 [56]: 36.3 µM (inactive)
GI50 [48]: > 100 µM (inactive)
GI50 [49]: > 100 µM (inactive)
GI50 [50]: > 100 µM (inactive)
GI50 [51]: > 100 µM (inactive)
GI50 [57]: > 100 µM (inactive)
GI50 [53]: > 100 µM (inactive)
GI50 [54]: > 100 µM (inactive)

Cc1ccc(/N=C2\SC(=S)N(CCC[N+](C)(C)C)\C2=N/c2ccc(C)cc2)cc1
GI50 [1]: 11.3 µM (inactive)
GI50 [2]: 10 µM (inactive)
GI50 [3]: 13.8 µM
GI50 [4]: 14.5 µM (inactive)
GI50 [5]: 13.2 µM (inactive)
GI50 [7]: 14.3 µM (inactive)
GI50 [58]: 17.2 µM (inactive)
GI50 [8]: 20.7 µM (inactive)
GI50 [9]: 15.9 µM (inactive)
GI50 [11]: 1.99 µM (inactive)
GI50 [12]: 10.9 µM (inactive)
GI50 [13]: 2.94 µM (inactive)
GI50 [14]: 14.5 µM (inactive)
GI50 [15]: 23.7 µM (inactive)
GI50 [16]: 10.1 µM (inactive)
GI50 [19]: 12.8 µM (inactive)
GI50 [21]: 4.08 µM (inactive)
GI50 [22]: 12 µM (inactive)
GI50 [23]: 21.6 µM (inactive)
GI50 [25]: 13.7 µM (inactive)
GI50 [27]: 18.5 µM (inactive)
GI50 [29]: 17 µM (inactive)
GI50 [30]: 7.64 µM (inactive)
GI50 [31]: 14.8 µM (inactive)
GI50 [55]: 6.01 µM (inactive)
GI50 [32]: 4.22 µM (inactive)
GI50 [33]: 18.1 µM (inactive)
GI50 [34]: 10.3 µM (inactive)
GI50 [35]: 8.24 µM (inactive)
GI50 [36]: 10.1 µM (inactive)
GI50 [38]: 11 µM (inactive)
GI50 [41]: 15.6 µM (inactive)
GI50 [42]: 21.1 µM (inactive)
GI50 [43]: 19.1 µM (inactive)
GI50 [44]: 21.7 µM (inactive)
GI50 [45]: 24.4 µM (inactive)
GI50 [46]: 11.2 µM (inactive)
GI50 [59]: 18.1 µM (inactive)
GI50 [47]: 15.4 µM (inactive)
GI50 [56]: 2.29 µM (inactive)
GI50 [49]: 7.03 µM (inactive)
GI50 [50]: 11 µM (inactive)
GI50 [51]: 2.49 µM (inactive)
GI50 [52]: 14.2 µM (inactive)
GI50 [57]: 7.13 µM (inactive)
GI50 [53]: 14.1 µM (inactive)
GI50 [54]: 18.9 µM (inactive)

Source: ChEMBL document CHEMBL1201862, “PubChem BioAssay data set” (2004)
